{
  "source": "patent US20250002450A1",
  "about": "“CATIONIC STEROID COMPOUNDS, METHOD OF OBTAINING THEREOF, FORMULATIONS COMPRISING THEREOF AND THEIR USES” (UNIVERSIDADE DO PORTO, priority 2021, published 2025)",
  "key": {"E. coli ATCC 25922": {"test_system": "E. coli ATCC 25922", "assay": "Membrane integrity, propidium iodide influx assay (SYTO 9/PI)", "type": "cell-based, Escherichia coli", "procedure": "The influx of PI in E. coli ATCC 25922 treated with 2×MIC, MIC, and ½×MIC of compound 1 was evaluated using a commercial kit that includes fluorescent nucleic acid stains SYTO® 9 and PI. SYTO® 9 can enter cells with intact or damaged membranes, generally labeling both, whereas PI only penetrates cells with severe membrane lesions, causing a reduction in SYTO® 9 fluorescence when both dyes are present.\nIn these assays, COL and AMP were used as controls. COL is a polycationic antimicrobial peptide with a complex mode of action, that ultimately solubilizes the bacterial cell membrane. AMP is an aminopenicillin that inhibits cell wall synthesis by inhibiting penicillin-binding proteins. E. coli ATCC 25922 cells were treated with compound 1 and, at several time-points (0, 1, and 18 h), samples were taken, and SYTO® 9/PI ratio was determined ([FIG. 4]). The entrance of PI is reflected in a reduction of this ratio.\nBriefly, E. coli ATCC 25922 colonies from overnight cultures in MHA were suspended in CAMHB to prepare an inoculum with a final concentration of approximately 5×10^5 CFU/mL. The tubes were incubated overnight at 36° C. in a water bath with shaking. Following this, the cell suspensions were centrifuged at 3500 rpm for 15 min, the supernatant was removed, the cells were carefully resuspended in fresh CAMHB and the suspension was adjusted to 0.5 McFarland. An aliquot of this suspension was then added to each tube of CAMHB alone (control) or CAMHB plus an appropriate amount of test compound. […] The tubes were incubated at 36 degrees C. in a water bath with shaking and, at pre-established time points (0, 1, and 18 h), […] aliquots were retrieved for further analysis. After the exposure time, cells were washed two times, resuspended in 0.85% NaCl, and 100 μL of each cell suspension was distributed in the wells of a microtiter plate, in triplicate. 100 μL of a mixture of 30 μM PI and 5 μM SYTO® 9 prepared in ultrapure water were added to each well, and the plates were incubated at room temperature, in the dark, for 15 min. The fluorescence intensity of the stained bacterial suspensions was determined using a microplate reader (Synergy HT, BioTek Instruments, Winooski, VT, USA) by two consecutive measurements with excitation wavelength 485 nm and emission wavelength 528 nm (SYTO® 9) or 590 nm (PI). Data were analyzed by subtracting background fluorescence from each sample, dividing the fluorescence intensity of SYTO® 9 by fluorescence intensity of PI, and the results are presented as a percentage of control. Three independent assays were performed in triplicate for each experimental condition."}, "C. albicans ATCC 10231 [1]": {"test_system": "C. albicans ATCC 10231", "assay": "Propidium iodide influx assay (SYTO 9/PI)", "type": "cell-based, Candida albicans", "details": "5 min", "experimental": "Influx of PI in C. albicans ATCC 10231 treated with compound 1 was evaluated using a commercial kit, which includes fluorescent nucleic acid stains SYTO™ 9 and PI, and measurements were conducted in a fluorescence microplate reader. […] The ability of PI to penetrate cells with damaged membranes makes it suitable for studying the effect of drugs on cell membranes.\nIn order to assess membrane integrity by the PI influx assay, a commercial kit was used (LIVE/DEAD® BacLight™ Bacterial Viability Kit, for microscopy & quantitative assays, Invitrogen by Thermo Fisher Scientific, Waltham, MA, USA), which includes fluorescent nucleic acid stains SYTO® 9 and PI. Briefly, C. albicans ATCC 10231 colonies from overnight cultures in SDA were suspended in sterile saline and adjusted to 0.5 McFarland. This suspension was then diluted in RPMI (1:50 followed by 1:20) to achieve a final concentration of 0.5-2.5×10^3 CFU/mL and the tubes were incubated overnight at 36° C. in a water bath with shaking. The following day, the cell suspensions were centrifuged at 3500 rpm for 15 min, the supernatant was removed, and the cells were carefully resuspended in 2 mL of 0.85% NaCl (VWR International, Radnor, PA, USA) prepared in ultrapure water. An aliquot of this suspension was then added to each tube of 0.85% NaCl alone (control) or 0.85% NaCl plus an appropriate amount of test compound, in a 1:10 proportion. […] Fluorescence intensity of the stained yeast suspensions was obtained in a microplate reader (Synergy HT, BioTek Instruments) by two consecutive measurements: with excitation wavelength 485 nm and emission wavelength 528 nm (SYTO® 9) and with excitation wavelength 485 nm and emission wavelength 590 nm (PI). Data were analyzed by subtracting background fluorescence from each sample, dividing fluorescence intensity of SYTO® 9 by fluorescence intensity of PI, and are presented as a percentage of control. […]"}, "C. albicans ATCC 10231 [2]": {"test_system": "C. albicans ATCC 10231", "assay": "Checkerboard synergy with antifungal drugs", "type": "cell-based, Candida albicans", "experimental": "According to the consensus interpretation of FICI values, FICI≤0.5 is interpreted as ‘synergy’. […] Inoculum and compound solutions were prepared as described for antifungal susceptibility testing. Fractional inhibitory concentrations (FIC) were calculated as follows: FIC of compound=MIC of compound combined with antifungal/MIC compound alone, and FIC antifungal=MIC of antifungal combined with compound/MIC of antifungal alone. The FIC index (FICI) was calculated as the sum of each FIC and interpreted as follows: FICI≤0.5, ‘synergy’; 0.5<FICI≤4, ‘no interaction’; FICI>4, ‘antagonism’. At least three independent experiments were performed and mean FICI was calculated."}},
  "data": [
    {"smiles": "C[C@H](CCC(=O)NCCN)[C@H]1CC[C@H]2[C@@H]3CC[C@@H]4C[C@H](O)CC[C@]4(C)[C@H]3C[C@H](O)[C@]12C", "note": "[Compound 1, (R)—N-(2-aminoethyl)-4-((3R,5R,8R,9S,10S,12S,13R,14S,17R)-3,12-dihydroxy-10,13-dimethylhexadecahydro-1H-cyclopenta[a]phenanthren-17-yl) pentanamida]", "values": [
      {"measurement": "reduction in SYTO 9/PI ratio vs untreated control", "setting": "E. coli ATCC 25922; 32 μg/mL (MIC), after 1 and 18 h", "value": "significant"},
      {"measurement": "reduction in SYTO 9/PI ratio vs untreated control", "setting": "E. coli ATCC 25922; 64 μg/mL (2×MIC, MBC), 0, 1, 18 h", "value": "significant at all time points"},
      {"measurement": "influx of PI", "setting": "C. albicans ATCC 10231 [1]; 32 μg/mL (½×MIC)", "value": "no evidence of influx of PI"},
      {"measurement": "reduction of SYTO 9/PI ratio vs untreated control", "setting": "C. albicans ATCC 10231 [1]; 128 and 64 μg/mL (2×MIC and MIC)", "value": "significant"},
      {"measurement": "effect on trailing caused by fluconazole at its MIC (in words)", "setting": "C. albicans ATCC 10231 [2]; 16 μg/mL of compound 1 (¼×MIC), fluconazole 2 μg/mL", "value": "eliminated trailing"},
      {"measurement": "fractional inhibitory concentration index (FICI)", "setting": "C. albicans ATCC 10231 [2]; with amphotericin B", "value": "≤ 0.5"},
      {"measurement": "fractional inhibitory concentration index (FICI)", "setting": "C. albicans ATCC 10231 [2]; with fluconazole", "value": "≤ 0.5"}
    ]}
  ]
}
